One data set deals with MRSP E104. Kind of data set: High-throughput growth curves (BioScreen). As to conditions: growth curve analysis. In kind it is cell-based, Staphylococcus pseudintermedius. As to the method: The effects of B1 on the growth of a reference MRSP strain (ST71, E104) were evaluated using BioScreen (Oy Growth Curves Ab LTd, Finland). A well characterized antimicrobial peptide, Nisin, was used as a positive control. […] The OD600 of each micro-culture was measured and recorded every 15 min after a 5 second pause of shaking in automatic mode. The recorded ODs were plotted against time to prepare the growth curves. The assay was performed with technical and biological replicates, and one representative result was presented.

In data set [1] the test system is cell wall synthesis in MRSP E104. Description: Macromolecule biosynthesis rate, cell wall (3H-glucosamine). The data set is classed as cell-based, Staphylococcus pseudintermedius. As to conditions: MRSP E104, 1.25 µg/ml, 20 min. As to the method:
(§1) Macromolecule biosynthesis rate was measured in MRSP E104 following a protocol adapted from Ling et al.[65]. Briefly, E104 overnight culture was sub-cultured 1:100 in MHB II and grown up to OD 0.2 at 600 nm. Cells were pelleted down by centrifugation and resuspended in fresh medium followed by incubation for 20 min with B1 or nisin at 1.5 µg/ml and 1.25 µg/ml, respectively, and radiolabeled precursor: (50µCi) 3H-Thymidine (PerkinElmer) and (5µCi) 3H-glucosamine hydrochloride per ml for DNA and cell wall, respectively. A positive control without antimicrobial was maintained. After incubation, samples were precipitated with equal volume of cold 30% TCA (Sigma) on ice. Precipitates were filtered on a membrane filter and subsequently subjected to two washes of cold 15% TCA and two washes of cold water using vacuum manifold. Subsequently, filters were air dried overnight and then transferred to 10 ml scintillation vials. Finally, scintillation fluid (3 ml) was added to each vial and ^3H count was taken in Beckman Coulter LS6500 liquid scintillation counter for one minute. The radioactive counts of the control samples were considered to have 100% precursor incorporation and macromolecule synthesis. The percentage rates of the antimicrobial-exposed samples were calculated accordingly. Each experiment was performed with replicates and the average rates of incorporation were plotted.

For data set [2], the system named is membrane potential of MRSP E104. Kind of data set: DiSC3(5) fluorescence-based membrane potential study. As to conditions: MRSP E104, nisin treatment. The data set is classed as cell-based, Staphylococcus pseudintermedius. The method, then: Freshly sub-cultured E104 cells were labelled with 1 µM 3,3-Dipropylthiadicarbocyanine iodide [DiSC3(5)] (Sigma) in MHB II. The fluorescence spectra of labelled cells were plotted in the LS50B luminescence spectrometer (PerkinElmer) at excitation/emission wavelengths 546 nm/573 nm using time drive application of FLWINLAB software. After reading an initial stable emission spectra of DiSC3(5), labelled cells were treated with B1 or nisin or protonophore CCCP at 1, 1.5 and 1.25 µg/ml, respectively and the change of fluorescence over time was recorded. The increment of DiSC3(5) fluorescence upon addition of antimicrobials or CCCP (FUafter-treatment – FUbefore-treatment) was plotted. This experiment was performed twice and each time with two technical replicates.

Data set [3] concerns DNA synthesis in MRSP E104. Description: Macromolecule biosynthesis rate, DNA (3H-Thymidine). As to conditions: MRSP E104, 1.25 µg/ml, 20 min. In kind it is cell-based, Staphylococcus pseudintermedius. As to the method:
as §1

The next data set has as its system MRSP C22963. In kind it is cell-based, Staphylococcus pseudintermedius. As to conditions: 18 h. As to the method: (§2) Activity of B1 was tested on 50P. aeruginosa isolates and 57S. pseudintermedius isolates (including 7 MRSP) that had been isolated in the diagnostic laboratory Sund Vet Diagnostik (University of Copenhagen) from various infections in dogs between 2009 and 2011. Representative MRSP (C22963), MSSA, and P. aeruginosa (26314) were used for testing the first set of B1 analogues.
(§3) MIC determination was performed by broth microdilution according to the Clinical and Laboratory Standard Institute (CLSI, M31-A3, 2008)[62]. In brief, each bacterial strain was diluted to concentration of 5 × 10^5 CFU/mL in Mueller Hinton broth II (MHB II) media (Oxoid) and added to a two-fold serial dilution of peptides and peptide-peptoid hybrids concentrations ranging from 1 to 64 µg/ml in 96-well plates (Nunc Internationals, Rochester, NY). The MICs were determined as a lowest concentration showing no visible growth after incubation for 18 hours at 37 °C. Experiments were performed in triplicates on two different days.

Another data set relates to MSSA (ATCC 29213). In kind it is cell-based, Staphylococcus aureus. As to conditions: ATCC 29213, 18 h. As to the method:
as §2, §3

The format of data set [4] is cell-based, human. As to conditions: human. The method, then: (§4) Briefly, two-fold serial dilutions (2.35 to 150 μM) of compounds in phosphate buffer saline (PBS) were mixed with equal volume of 0.5% v/v suspension of fresh human red blood cells (RBC) in the same buffer. After 1 h incubation at 37 °C, plates were centrifuged and aliquots of the supernatants were transferred to clear 96-well plates. Absorbance at 414 nm was measured and normalized using a negative (PBS, 0%) and a positive (melittin, 100%) control. The EC10 and EC50 are concentrations at which 10% and 50% of RBC were lysed, respectively, as interpolated graphically by the y-axis intersection of the plotted data.

Another data set relates to human red blood cells. In kind it is cell-based. As to conditions: for pEC50: red cells of human, 1 h. As to the method: as §4
Another data set relates to P. aeruginosa (26314). In kind it is cell-based, Pseudomonas aeruginosa. As to conditions: 26314, 18 h. The method, then:
Activity of B1 was tested on […]. aeruginosa isolates and […]. pseudintermedius isolates (including 7 MRSP) that had been isolated in the diagnostic laboratory Sund Vet Diagnostik (University of Copenhagen) from various infections in dogs between 2009 and 2011. Representative […], and P. aeruginosa (26314) were used for testing the first set of B1 analogues. For antibacterial spectrum the following strains were used: Corynebacterium auriscanis, 31551, (54 C6, dog, ear, 2013); Enterococcus faecalis, 27404, (17 C7, dog, wound, 2011); Enterococcus faecium, 30951, (24 C1, dog, ear, 2013); Streptococcus canis, 26740-1, (14 H1, dog, ear, 2010); Staphylococcus aureus, 27266, (16 G9, dog, skin, 2010); Staphylococcus aureus, 27266, (16 G9, dog, skin, 2010); Staphylococcus pseudintermedius 22963, (3 B9, dog, 2007). Acinetobacter baumannii, 27065, (16 D1, dog, wound, 2010); E. coli, 30235, 23 A6, dog, wound, 2012; Klebsiella pneumoniae, 26233, (11 H5, dog, wound, 2010); Pasteurella canis, 31096, (24 C8, dog, skin, 2013); Proteus mirabilis, 25178, (9 A4, dog, ear, 2009); Pseudomonas aeruginosa 26314, 12 C5, dog, urine, 2010). MIC determination was performed by broth microdilution according to the Clinical and Laboratory Standard Institute (CLSI, […]-A3, 2008)[62]. In brief, each bacterial strain was diluted to concentration of 5 × 10^5 CFU/mL in Mueller Hinton broth II (MHB II) media (Oxoid) and added to a two-fold serial dilution of peptides and peptide-peptoid hybrids concentrations ranging from 1 to 64 μg/ml in 96-well plates (Nunc Internationals, Rochester, NY). The MICs were determined as a lowest concentration showing no visible growth after incubation for 18 hours at 37 °C. Experiments were performed in triplicates on two different days.

pEC50: −log10 of the molar value. Square brackets hold non-standard residues; d marks the D form. Ends that are not written are not given here. Peptide text beside a SMILES is read from it. N(1-naphthylmethyl)Gly = O=C(O)CNCc1cccc2ccccc12; 1Nal = N[C@@H](Cc1cccc2ccccc12)C(=O)O; 2Nal = N[C@@H](Cc1ccc2ccccc2c1)C(=O)O; d2Nal = N[C@H](Cc1ccc2ccccc2c1)C(=O)O; Nphe = O=C(O)CNCc1ccccc1; NBuGly = CCCCNCC(=O)O Bounds are passed on as bounds.

Turning to “nisin (ITSISLCTPGCKTGALMGCNMKTATCHCSIHVSK; not fully specified (some residues, bridges); cysteine pairing not given here; also: lantibiotic nisin-A (post-translational modifications not given here); UniProt P13068 24-57, looked up) [well-characterized antimicrobial peptide used as control, reference compound]”, in the data set with MRSP E104, the “MIC concentration (cell lysis) MRSP E104” value came out at 5 mg/L. The “inhibition of cell wall synthesis” value in [1] turned out to be 60%. Also, the “membrane potential, DiSC3(5) fluorescence emission” value in [2] is given as “no fluorescence increment”. Moreover, the “inhibition of DNA synthesis” value in [3] came out at 50%.
`CC(C)C[C@@H](NC(=O)[C@H](CCCCN)NC(=O)[C@H](CCCCN)NC(=O)[C@@H](N)CCCCN)C(=O)N[C@H](Cc1ccc2ccccc2c1)C(=O)N[C@H](Cc1ccccc1)C(=O)N[C@H](Cc1ccc2ccccc2c1)C(N)=O` [Compound 16, Lys-Lys-Lys-leu-(2-Nal)ala-phe-(2-Nal)ala] (H-KKK[dL][d2Nal][dF][d2Nal]-NH2; N-terminus assumed): the “Minimum Inhibitory Concentration MRSP C22963” value with MRSP C22963 lay in the range of 2 to 4 µg/mL. The “Minimum Inhibitory Concentration MSSA (ATCC 29213)” value with MSSA (ATCC 29213) fell in the range of 8 to 16 µg/mL. Further, the hemolysis at 1 h, 150 µM in data set [4] was determined as 60%. In the data set with human red blood cells, the “Haemolysis EC10” value was found to be 18 µM and the pEC50 is 3.93. The “Minimum Inhibitory Concentration P. aeruginosa (26314)” value with P. aeruginosa (26314) was 32 µg/mL.
As for `CC(C)C[C@H](NC(=O)[C@H](Cc1ccc2ccccc2c1)NC(=O)[C@H](Cc1ccccc1)NC(=O)[C@@H](N)Cc1ccc2ccccc2c1)C(=O)N[C@@H](CCCCN)C(=O)N[C@@H](CCCCN)C(=O)N[C@@H](CCCCN)C(N)=O` [Compound 13, (2-Nal)Ala-Phe-(2-Nal)Ala-Leu-Lys-Lys-Lys] (H-[2Nal]F[2Nal]LKKK-NH2; N-terminus assumed), in the data set with MRSP C22963, the “Minimum Inhibitory Concentration MRSP C22963” value came to 8 µg/mL. In addition, the “Minimum Inhibitory Concentration MSSA (ATCC 29213)” value with MSSA (ATCC 29213) came out at 32 µg/mL. In [4], this compound displayed a hemolysis at 1 h, 150 µM of 15%. Moreover, in the data set on human red blood cells, the “Haemolysis EC10” value turned out to be 110 µM. The “Minimum Inhibitory Concentration P. aeruginosa (26314)” value in the data set on P. aeruginosa (26314) was above 64 µg/mL.
In the case of `CC(C)C[C@H](NC(=O)[C@H](CCCCN)NC(=O)[C@@H](N)CCCCN)C(=O)N[C@@H](CCCCN)C(=O)N[C@@H](Cc1cccc2ccccc12)C(=O)N[C@@H](Cc1ccccc1)C(=O)N[C@@H](Cc1cccc2ccccc12)C(N)=O` [Compound 6, Lys-Lys-Leu-Lys-(1-Nal)Ala-Phe-(1-Nal)Ala] (H-KKLK[1Nal]F[1Nal]-NH2; N-terminus assumed), in the data set on MRSP C22963, the “Minimum Inhibitory Concentration MRSP C22963” value is 8 µg/mL. Further, the “Minimum Inhibitory Concentration MSSA (ATCC 29213)” value with MSSA (ATCC 29213) came out at 32 µg/mL. The compound also returned a hemolysis at 1 h, 150 µM in data set [4] of 96%. In addition, in the data set with human red blood cells, the “Haemolysis EC10” value amounted to 5 µM and the pEC50 was 4.24. The “Minimum Inhibitory Concentration P. aeruginosa (26314)” value with P. aeruginosa (26314) came to 8 µg/mL.
In the case of `CCCCN(CC(=O)N[C@@H](CCCCN)C(=O)N[C@@H](CCCCN)C(=O)N[C@@H](CCCCN)C(N)=O)C(=O)CN(Cc1cccc2ccccc12)C(=O)CN(Cc1ccccc1)C(=O)CNCc1cccc2ccccc12` [Compound 4, (N1-Nal)Gly-(NPhe)Gly-(N1-Nal)Gly-(NBu)Gly-Lys-Lys-Lys] (H-[N(1-naphthylmethyl)Gly][Nphe][N(1-naphthylmethyl)Gly][NBuGly]KKK-NH2; N-terminus assumed), the “Minimum Inhibitory Concentration MRSP C22963” value in the data set on MRSP C22963 came to 8 µg/mL. Besides, the “Minimum Inhibitory Concentration MSSA (ATCC 29213)” value in the data set on MSSA (ATCC 29213) came out at 16 µg/mL. In data set [4], this compound displayed a hemolysis at 1 h, 150 µM of 24%. Also, the “Haemolysis EC10” value with human red blood cells turned out to be 54 µM. The “Minimum Inhibitory Concentration P. aeruginosa (26314)” value in the data set on P. aeruginosa (26314) amounted to 32 µg/mL.

Values taken from article PMC6403271, “Characterization, mechanism of action and optimization of activity of a novel peptide-peptoid hybrid against bacterial pathogens involved in canine skin infections” (Scientific Reports, 2019).
